± gives the expanded uncertainty stated by the source.
Assay: mn = molality of the nth substance listed, in mol/kg
Details: 101 kPa, Liquid; for mass density: Pycnometric method; for viscosity: Capillary tube (Ostwald / Ubbelohde) method; for speed of sound: Linear variable-path acoustic interferometer

Structure (SMILES): O=[N+]([O-])[O-].O=[N+]([O-])[O-].[Mg+2] [magnesium nitrate] + O
- mass density (310.1 K, m1 = 1.694): 1152.8 ± 0.8 kg/m3
- mass density (310.15 K, m1 = 4.403): 1349.7 ± 0.9 kg/m3
- mass density (310.7 K, m1 = 0.9898): 1090.8 ± 0.7 kg/m3
- mass density (310.8 K, m1 = 0.2491): 1019 ± 0.7 kg/m3
- mass density (310.9 K, m1 = 3.096): 1263.8 ± 0.8 kg/m3
- mass density (310.95 K, m1 = 1.262): 1114.7 ± 0.8 kg/m3
- mass density (311 K, m1 = 3.501): 1291.7 ± 0.9 kg/m3
- mass density (311 K, m1 = 3.757): 1308.1 ± 0.9 kg/m3
- mass density (311.05 K, m1 = 3.17): 1273.3 ± 0.9 kg/m3
- mass density (311.2 K, m1 = 3.118): 1264.5 ± 0.8 kg/m3
- mass density (311.25 K, m1 = 2.131): 1189.9 ± 0.8 kg/m3
- mass density (311.25 K, m1 = 4.728): 1370.6 ± 0.9 kg/m3
- mass density (311.35 K, m1 = 5.134): 1394 ± 0.8 kg/m3
- mass density (311.45 K, m1 = 4.883): 1377.1 ± 1 kg/m3
- mass density (311.55 K, m1 = 0.896): 1081.3 ± 0.8 kg/m3
- mass density (311.75 K, m1 = 1.827): 1164.7 ± 1.1 kg/m3
- mass density (311.9 K, m1 = 4.039): 1325 ± 0.9 kg/m3
- mass density (311.95 K, m1 = 5.282): 1402.5 ± 0.9 kg/m3
- mass density (312 K, m1 = 4.97): 1382.9 ± 0.9 kg/m3
- mass density (312.1 K, m1 = 0.6173): 1054.3 ± 0.7 kg/m3
- mass density (312.15 K, m1 = 1.694): 1151.6 ± 0.8 kg/m3
- mass density (312.15 K, m1 = 2.793): 1240.8 ± 0.9 kg/m3
- mass density (312.25 K, m1 = 0.0528): 997.99 ± 0.67 kg/m3
- mass density (312.4 K, m1 = 4.403): 1348.2 ± 0.9 kg/m3
- mass density (312.45 K, m1 = 0.0145): 993.76 ± 0.67 kg/m3
- mass density (312.95 K, m1 = 1.525): 1136.3 ± 0.7 kg/m3
- mass density (313.1 K, m1 = 1.262): 1113.5 ± 0.8 kg/m3
- viscosity (313.15 K, m1 = 0.0145): 0.6666 ± 0.0088 mPa·s
- viscosity (313.15 K, m1 = 0.0528): 0.6778 ± 0.0089 mPa·s
- viscosity (313.15 K, m1 = 0.2491): 0.7155 ± 0.0094 mPa·s
- viscosity (313.15 K, m1 = 0.5931): 0.7972 ± 0.01 mPa·s
- viscosity (313.15 K, m1 = 0.9898): 0.913 ± 0.012 mPa·s
- viscosity (313.15 K, m1 = 1.262): 1.008 ± 0.013 mPa·s
- viscosity (313.15 K, m1 = 1.827): 1.305 ± 0.017 mPa·s
- viscosity (313.15 K, m1 = 2.131): 1.364 ± 0.018 mPa·s
- viscosity (313.15 K, m1 = 2.584): 1.616 ± 0.021 mPa·s
- viscosity (313.15 K, m1 = 3.096): 1.947 ± 0.025 mPa·s
- viscosity (313.15 K, m1 = 3.329): 2.128 ± 0.028 mPa·s
- viscosity (313.15 K, m1 = 3.704): 2.435 ± 0.032 mPa·s
- viscosity (313.15 K, m1 = 4.039): 2.798 ± 0.036 mPa·s
- viscosity (313.15 K, m1 = 4.728): 3.817 ± 0.05 mPa·s
- viscosity (313.15 K, m1 = 4.907): 4.176 ± 0.055 mPa·s
- viscosity (313.15 K, m1 = 5.282): 4.924 ± 0.065 mPa·s
- speed of sound (313.15 K, m1 = 0.0145): 1532.2 ± 1.9 m/s
- speed of sound (313.15 K, m1 = 0.0528): 1531.9 ± 1.9 m/s
- speed of sound (313.15 K, m1 = 0.2491): 1544.5 ± 1.9 m/s
- speed of sound (313.15 K, m1 = 0.3405): 1546 ± 1.9 m/s
- speed of sound (313.15 K, m1 = 0.6173): 1566.4 ± 1.9 m/s
- speed of sound (313.15 K, m1 = 0.896): 1584.7 ± 1.9 m/s
- speed of sound (313.15 K, m1 = 0.9898): 1591.3 ± 1.9 m/s
- speed of sound (313.15 K, m1 = 1.262): 1607.1 ± 1.9 m/s
- speed of sound (313.15 K, m1 = 1.525): 1625.9 ± 1.9 m/s
- speed of sound (313.15 K, m1 = 1.827): 1647.8 ± 1.9 m/s
- speed of sound (313.15 K, m1 = 2.131): 1667.8 ± 2 m/s
- speed of sound (313.15 K, m1 = 2.493): 1688.9 ± 2 m/s
- speed of sound (313.15 K, m1 = 2.793): 1709 ± 2 m/s
- speed of sound (313.15 K, m1 = 3.118): 1728.1 ± 2 m/s
- speed of sound (313.15 K, m1 = 3.17): 1734.7 ± 2 m/s
- speed of sound (313.15 K, m1 = 3.501): 1751.2 ± 2 m/s
- speed of sound (313.15 K, m1 = 3.757): 1767.8 ± 2 m/s
- speed of sound (313.15 K, m1 = 4.051): 1778.4 ± 2 m/s
- speed of sound (313.15 K, m1 = 4.285): 1791.3 ± 2 m/s
- speed of sound (313.15 K, m1 = 4.403): 1797.9 ± 2.1 m/s
- speed of sound (313.15 K, m1 = 4.883): 1823.1 ± 2.1 m/s
- speed of sound (313.15 K, m1 = 5.134): 1834.3 ± 2.1 m/s
- mass density (313.15 K, m1 = 3.096): 1262.3 ± 0.8 kg/m3
- mass density (313.25 K, m1 = 3.118): 1263.3 ± 0.8 kg/m3
- mass density (313.25 K, m1 = 4.285): 1340.7 ± 1.1 kg/m3
- mass density (313.45 K, m1 = 0.2491): 1017.9 ± 0.7 kg/m3
- mass density (313.5 K, m1 = 2.493): 1216.4 ± 0.9 kg/m3
- mass density (313.6 K, m1 = 2.131): 1188.5 ± 0.8 kg/m3
- mass density (313.7 K, m1 = 0.3405): 1026.4 ± 0.7 kg/m3
- mass density (313.7 K, m1 = 4.883): 1375.5 ± 0.9 kg/m3
- mass density (313.8 K, m1 = 0.896): 1080.2 ± 0.8 kg/m3
- mass density (313.8 K, m1 = 4.051): 1324 ± 0.9 kg/m3
- mass density (314.1 K, m1 = 2.793): 1239.5 ± 0.9 kg/m3
- mass density (314.15 K, m1 = 3.704): 1303 ± 0.9 kg/m3
- mass density (314.15 K, m1 = 5.282): 1401.1 ± 1 kg/m3
- mass density (314.25 K, m1 = 2.584): 1224.2 ± 0.9 kg/m3
- mass density (314.45 K, m1 = 0.5931): 1050.6 ± 0.7 kg/m3
- mass density (314.45 K, m1 = 0.6173): 1053.3 ± 0.7 kg/m3
- mass density (314.5 K, m1 = 1.694): 1150.4 ± 0.9 kg/m3
- mass density (314.5 K, m1 = 4.403): 1346.8 ± 1 kg/m3
